The source of these data is PubChem BioAssay (NCI).

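Method: 48-hour compound exposure of cells in 96-well plates, five concentrations, linear interpolation of endpoints. GI50: concentration for 50% inhibition of growth. TGI: concentration producing complete growth inhibition.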 Some results are limits rather than exact numbers.

Among the test systems are CAKI-1 renal; DU-145 prostate; HCC-2998 colon; HT29 colon; M14 melanoma; MCF7 breast; NCI-H460 lung; PC-3 prostate; SF-295 CNS; SR leukemia.
Holding throughout (assay): inhibition of tumour cell growth, NCI panel, 48 h

Take `COc1ccc(Nc2ccnc3cc(Cl)ccc23)cc1CN(CCCl)CCCl`: the GI50 with CAKI-1 renal was 262 nM; with DU-145 prostate, 901 nM; in the assay on HCC-2998 colon it was 1680 nM; with HT29 colon, 1620 nM; in the assay with M14 melanoma, 2140 nM; with MCF7 breast it was 633 nM. The GI50 in the assay on NCI-H460 lung is 532 nM; with PC-3 prostate it was 2050 nM; with SF-295 CNS, 804 nM; in the assay with SR leukemia, 158 nM. In addition, the TGI in the assay on CAKI-1 renal is 933 nM; in the assay on DU-145 prostate it was 3540 nM; with HCC-2998 colon it was 4540 nM; with HT29 colon it was 6420 nM; with M14 melanoma it was 7920 nM; with MCF7 breast, 6420 nM. Further, the TGI is 2960 nM in the assay on NCI-H460 lung, above 100000 nM with PC-3 prostate, 3310 nM in the assay on SF-295 CNS and 699 nM with SR leukemia.

Turning to `CSC(=N/N=C(\C)c1ccc(S(=O)(=O)N(C)c2ccccc2)cc1)SC`, the TGI with CAKI-1 renal, in the assay on DU-145 prostate, with HCC-2998 colon, in the assay on HT29 colon, in the assay on M14 melanoma and in the assay with MCF7 breast was above 100000 nM throughout. Also, the TGI in the assay on NCI-H460 lung, with PC-3 prostate, in the assay on SF-295 CNS and with SR leukemia was above 100000 nM in each case.
